The source made the active and inactive calls. No cut-off for these calls is given here.
System: Radical scavenging activity
Experiment: Antioxidant activity assessed as DPPH radical scavenging activity at 20 uM after 2 min by spectrophotometric analysis
Format: functional

O=C(/C=C/c1ccc(O)c(O)c1)OC[C@H]1O[C@@H](Oc2cc(O)c3c(=O)c(-c4ccc(O)cc4)coc3c2)[C@H](O)[C@@H](O)[C@@H]1O
Activity: inactive

O=C(/C=C/c1ccc(O)c(O)c1)OC[C@H]1O[C@@H](Oc2cc(O)c3c(c2)O[C@H](c2ccc(O)cc2)CC3=O)[C@H](O)[C@@H](O)[C@@H]1O
Activity: inactive

Source: ChEMBL document CHEMBL3046107, “A new isoflavone from Blepharis ciliaris of an Egyptian origin” (Med Chem Res, 2013)
